According to patent US10408783B2, “Electrochemical methods and compounds for the detection of enzymes” (GEORGIA STATE UNIVERSITY RESEARCH FOUNDATION, INC., priority 2014, dated 2019):
“Also recorded” adds a separate entry of the source.

How the values were obtained:
[1] = tested on: β-N-Acetylglucosaminidase; format: biochemical; conditions: substrate incubated with β-N-Acetylglucosaminidase
α-L-Fucosidase = format: biochemical; conditions: substrate incubated with α-L-Fucosidase
H3N2 A/HongKong/8/68 = experiment: Electrochemical assay, 3 electrode system: SG1 cleavage and drug susceptibility; format: biochemical, Influenza A virus; conditions: 10 ng antiviral premixed 30 min before SG1
[2] = tested on: N2 NA (strain A/Babol/36/2005); experiment: as above; format: biochemical, influenza virus; conditions: 10 ng antiviral premixed 30 min before SG1
H3N2 A/Aichi/2/1968 = experiment: as above; format: biochemical, Influenza A virus; conditions: 10 ng antiviral premixed 30 min before SG1
H1N1 A/Brisbane/59/2007 = experiment: as above; format: biochemical, Influenza A virus; conditions: 10 ng antiviral premixed 30 min before SG1
[3] = tested on: bacterial NA (BNA) from Clostridium perfringens; format: biochemical; conditions: antiviral premixed with bacterial NA, then SG1
[4] = tested on: membrane free soluble N1 NA (strain H5N1 A/Anhui/1/2005); format: biochemical, influenza virus; conditions: 10 ng antiviral premixed 30 min before SG1
H5N1 NA = format: biochemical, influenza virus; conditions: H5N1 NA overnight
influenza NA = experiment: Hydrolysis of the probe by influenza NA followed by mass spectroscopy; format: biochemical, influenza virus
H3N2 NA = format: biochemical, influenza virus; conditions: H3N2 NA overnight
H3N2 virus [5] = experiment: Hydrolysis of sialylglucose by intact influenza virus, amperometric glucose measurement; format: biochemical; conditions: H3N2 virus overnight
H1N1 virus [6] = experiment: as above; format: biochemical; conditions: for current compared with glucose standard solution: H1N1 virus
H1N1 virus [7] = experiment: Hydrolysis of the probe by intact influenza virus followed by mass spectrum; format: biochemical; conditions: pH 5.68, 37° C.
H3N2 virus [8] = experiment: as above; format: biochemical; conditions: pH 5.68, 37° C.
[9] = H1N1 virus 1 h, 1 mM substrate, pH 5.68, 37° C.

CC(=O)NC1[C@H](Oc2ccc(CO[C@@H]3OC(CO)[C@@H](O)[C@H](O)C3O)cc2)OC(CO)[C@@H](O)[C@@H]1O (some centres unmarked) [Substrate 23]
i, value of electrochemical assay [1]: 28.5 ± 4.0 10^−8 A

CC(=O)NC1[C@@H](Oc2ccc(CO[C@@H]3OC(CO)[C@@H](O)[C@H](O)C3O)cc2)OC(CO)[C@@H](O)[C@@H]1O (some centres unmarked) [Substrate 24]
i, value of electrochemical assay [1]: 11.1 ± 2.3 10^−8 A

CC1O[C@@H](OCC2OC(O)C(O)[C@@H](O)[C@@H]2O)C(O)[C@@H](O)[C@@H]1O (some centres unmarked) [Substrate 25]
i, value of electrochemical assay (α-L-Fucosidase): 44.5 ± 2.9 10^−8 A

CC1O[C@@H](Oc2ccc(CO[C@@H]3OC(CO)[C@@H](O)[C@H](O)C3O)cc2)C(O)[C@@H](O)[C@@H]1O (some centres unmarked) [Substrate 26]
i, value of electrochemical assay (α-L-Fucosidase): 25.2 ± 2.9 10^−8 A

CC(=O)N[C@H]1[C@H]([C@H](O)[C@H](O)CO)OC(C(=O)O)=C[C@@H]1N=C(N)N [Zanamivir]
inhibition of NA (glucose release from SG1) by antiviral (H3N2 A/HongKong/8/68): completely inhibited; also recorded: Glucose was not released
inhibition of NA (glucose release from SG1) by antiviral [2]: completely inhibited
inhibition of NA (glucose release from SG1) by antiviral (H3N2 A/Aichi/2/1968): completely inhibited; also recorded: Glucose was not released
inhibition of NA (glucose release from SG1) by antiviral (H1N1 A/Brisbane/59/2007): completely inhibited; also recorded: Glucose was not released
inhibition of bacterial NA (glucose release from SG1) by antiviral [3]: NA still cleaved SG1; also recorded: glucose was released
inhibition of NA (glucose release from SG1) by antiviral [4]: completely inhibited

CC(=O)N[C@H]1[C@H]([C@H](O)[C@H](O)CO)O[C@@](OC[C@H]2O[C@H](O)[C@H](O)[C@@H](O)[C@@H]2O)(C(=O)O)C[C@@H]1O [sialylglucose, 5-acetamido-3,5-dideoxy-D-glycero-α-D-galacto-non-2-ulopyranosylonate-(2→6) α-D-glucopyranoside]
Calculated Glucose Concentration (H5N1 NA): 66.47 µM
Current (H5N1 NA): 7.647E−08 A
hydrolysis of the probe by NA (mass spectrum) (influenza NA; pH 5.68, 37° C., overnight): substrate peak could no longer be observed
hydrolysis of the probe by NA (mass spectrum) (influenza NA; pH 7.40, room temperature, overnight incubation): incomplete hydrolysis
Calculated Glucose Concentration (H3N2 NA): 102.3 µM
Current (H3N2 NA): 1.123E−07 A
Calculated Glucose Concentration (H3N2 virus [5]): 76.09 µM
Current (H3N2 virus [5]): 8.609E−08 A
Calculated Glucose Concentration (H1N1 virus [6]; [9]): 116.2 µM
Current (H1N1 virus [6]; [9]): 1.262E−07 A
Calculated Glucose Concentration (H1N1 virus [6]; H1N1 virus 5 h): 126.6 µM
Current (H1N1 virus [6]; H1N1 virus 5 h): 1.366E−07 A
Calculated Glucose Concentration (H1N1 virus [6]; H1N1 virus overnight): 50.66 µM
Current (H1N1 virus [6]; H1N1 virus overnight): 6.066E−08 A
current compared with 1 h and 5 h samples (H1N1 virus [6]; H1N1 virus overnight): significantly lower current
current compared with glucose standard solution (H1N1 virus [6]; hydrolysis stopped at 1 h): ~100 µM
current compared with glucose standard solution (H1N1 virus [6]; hydrolysis stopped at 5 h): ~100 µM
hydrolysis by intact influenza virus (mass spectrum) (H1N1 virus [7]): complete hydrolysis
hydrolysis by intact influenza virus (mass spectrum) (H3N2 virus [8]): complete hydrolysis
